From patent US9637795B2, “Methods and compositions for predicting response to eribulin” (Eisai R&D Management Co., Ltd., priority 2011, dated 2017)
Counter-ions that a name gives are not always drawn.

Tests used:
BT-549 cells = test: IC20 of E7389 for BT-549 cells; type: cell-based; settings: Homo sapiens
MDA-MB-231 = test: IC20 of E7389 for the cell line tested (MDA-MB-231); type: cell-based; settings: Homo sapiens
Text: Transfection conditions for human breast cancer cell lines MDA-MB-231 (ATCC Catalog No. HTB26™) and BT-549 (ATCC Catalog No. HTB122™) were optimized using transfection reagent DharmaFect 1 from Dharmacon. The MDA-MB-231 and BT-549 cell lines have been reported to be Estrogen Receptor (ER) negative, Progesterone Receptor (PR) negative and HER-2 negative (triple negative). As a non-targeting negative control we used Silencer Negative Control #1 siRNA from Applied Biosystems. The siGENOME TOX (siTOX) Transfection Control (Dharmacon), an RNA duplex designed to induce cell death, was used as a positive control for cell proliferation assays. A reverse transfection procedure in which siRNA was first mixed with transfection reagent and then cells were added to the well, was used in all experiments. Cell viability was compared in cells treated with medium, negative control siRNA and siTOX reagent combined with different amount of DharmaFect 1. […]
The whole human genome siRNA library was purchased from Dharmacon. […] Cell viability was determined at 96 hours after transfection by CellTiter-Glo luminescent assay from Promega. […] Plates were mixed for 2 minutes on a horizontal shaker, incubated for 10 minutes and read on an EnVision® multilabel plate reader from PerkinElmer.

Q: Which IC20 (BT-549 cells) does the source give for `C=C1C[C@@H]2CC[C@@]34C[C@H]5O[C@H]6C(O3)[C@H]3OC(CC[C@@H]3O[C@H]6[C@H]5O4)CC(=O)C[C@@H]3[C@@H](OC)[C@@H](C[C@H](O)CN)O[C@H]3CC3O[C@@H](CCC1O2)C[C@@H](C)C3=C` [E7389, 11,15:18,21:24,28-Triepoxy-7,9-ethano-12,15-methano-9H,15H-furo[3,2-i]furo[2′,3′:5,6]pyrano[4,3-b][1,4]dioxacyclopentacosin-5(4H)-one, 2-[(2S)-3-amino-2-hydroxypropyl]hexacosahydro-3-methoxy-26-methyl-20,27-bis(methylene)-, (2R,3R,3aS,7R,8aS,9S,10aR,11S,12R,13aR,13bS,15S,18S,21S,24S,26R,28R,29aS)-methanesulfonate (salt)] here?
A: The IC20 was 0.25 nM.

Q: What about the IC20 (MDA-MB-231) of the same compound?
A: The IC20 was 0.75 nM.
